Measured values reported in patent US20250270217A1, “IMIDAZ0[1,2-A]PYRIMIDINE-5(1 H)-ONES HAVING A COVALENT WARHEAD AT THE 3-POSITION AS WRN INHIBITORS” (Incyte Corporation, priority 2023, published 2025).

Tests used:
WRN [1] = target: T1, WRN (Homo sapiens, UniProt Q14191); assay: WRN ATPase activity assay (ADP-Glo); type: biochemical; conditions: 1-hr pre-incubation with enzyme; 100 μM ATP, 25 nM forked dsDNA, 1 nM WRN; geometric mean of at least 2 replicates
T1 construct: A His-tagged construct of WRN (AA S2-S1235) was produced and used for the ATPase assay; His; made in house; host or cells: Sf9 insect cells (baculovirus)
Experimental: Compounds of the Examples were tested for WRN ATPase activity. WRN ATPase activity catalyzes ATP hydrolysis to produce ADP and phosphate. DNA encoding the target protein, 6×HIS-TEV-WRN-517-945, was produced, cloned and transfected as detailed in Example D. The amount of ADP produced was measured using ADP-Glo™ Kinase Assay kit from Promega Corporation in a Greiner white regular volume 384 wells assay plate (Greiner #781075). Data was normalized to a standard curve generated using various ADP concentrations and the corresponding luminescent signal intensities at each concentration. The assay conditions were optimized for enzyme concentration (WRN), substrate concentrations (ATP & dsDNA), and the linearity of the ATPase reaction, in the following assay buffer: 50 mM Tris-HCl, pH-7.5, 2 mM MgCl2, 50 mM NaCl, 1 mM EGTA, 0.01% P-20, 0.05% BSA, and 2 mM DTT prepared with nuclease free water.
A serial dilution (1:3 scheme) of the compounds were prepared in neat DMSO, with 100 nL of the compounds dispensed in the 384 wells assay plate. An 1-hr pre-incubation of the compounds with enzyme was included. A His-tagged construct of WRN (AA S2-S1235) was produced and used for the ATPase assay. Maximum inhibition control wells were set up with the addition of only assay buffer, and no inhibition control wells were set up with neat DMSO without test compounds. The reaction was initiated by addition of 5 μL substrate mix (200 μM ultrapure ATP, and 50 nM dsDNA prepared in assay buffer) and incubated at 25° C. for 35 min. A forked dsDNA oligomer substrate was prepared by annealing equal amounts of oligo GPat-1 ([BHQ2][…]) and oligo GPat-2 ([…][TAM]) and was used as dsDNA substrate for WRN ATPase assay. A typical ATPase reaction consists of 25 nM forked dsDNA, 100 μM ATP, and 1 nM WRN prepared in assay buffer. The WRN ATPase reaction was stopped by the addition of 5 μL of ADP-Glo Reagent from ADP-Glo™ Kinase Assay kit and incubated for 40 min to deplete the unreacted ATP. Afterwards, 5 μL of Kinase Detection Reagent from the ADP-Glo™ Kinase Assay kit was added and incubated for 1 hr for the development of luminescence signal.
Luminesce signals were measured on BMG PHERAstar FSX using luminescence protocol. Data analysis was carried out using Genedata software following % of control normalization. Fitting parameters include dose response IC50, Hill slope (n), maximum inhibition (S∞), and minimum inhibition (S0). The reported IC50 values for compounds in this invention are the geometric means of at least 2 independent replicates.

WRN [2] = target: T1, WRN; assay: WRN Helicase activity assay (fluorescence DNA unwinding); type: biochemical; conditions: 1-hr pre-incubation with enzyme; 100 μM ATP, 25 nM forked dsDNA, 1 nM WRN; geometric mean of at least 2 replicates
Experimental: Compounds of the examples were tested for WRN helicase activity. DNA encoding the target protein, 6×HIS-TEV-WRN-517-945, was produced, cloned and transfected as detailed in Example D. To determine the inhibitory properties of the compounds, a 384 wells plate-based Helicase assay was set up to measure the extent of DNA unwinding (Helicase) activity of WRN. The WRN Helicase assay was designed to measure increase in fluorescence signal using a fluorescence based, donor-quencher paired forked dsDNA oligomer substrate (custom synthesis from Sigma-Aldrich) prepared by annealing equal amounts of oligo GPat-1 ([BHQ2][…]) and oligo GPat-2 ([…][TAM]). Continuous measurement of fluorescent signal was used to optimize the buffer conditions, concentration of enzyme (WRN), concentration of substrates (ATP & dsDNA), and the linearity of the Helicase reaction. All solutions were prepared in the following assay buffer: 50 mM Tris-HCl, pH-7.5, 2 mM MgCl2, 50 mM NaCl, 1 mM EGTA, 0.01% P-20, 0.05% BSA, and 2 mM DTT prepared with nuclease free water.
A serial dilution (1:3 scheme) of the compounds was prepared in neat DMSO and 100 nL of the compounds was dispensed in the Greiner black low volume (Greiner #784076) 384 wells assay plate. An 1-hr pre-incubation of the compounds with enzyme was included. A His-tagged construct of WRN (AA S2-S1235) was produced and used for the ATPase assay. Maximum inhibition control wells were set up with the addition of only assay buffer, and no inhibition control wells were set up with neat DMSO without test compounds. The reaction was initiated by addition of 5 μL substrate mix (200 μM ultrapure ATP, and 50 nM dsDNA prepared in assay buffer) and incubated at 25° C. for 35 min. A typical Helicase reaction consists of 25 nM forked dsDNA, 100 μM ATP, and 1 nM WRN prepared in assay buffer. The WRN Helicase reaction was quenched by the addition of 5 μL ‘STOP’ solution containing 100 mM EDTA (final EDTA concentration 33.33 mM) prepared in assay buffer. The plates were read on BMG PHERAstar FSX using 540/590 module to measure an increase of fluorescence. Data analysis was carried out using the Genedata software following % of control normalization. Fitting parameters include dose response IC50, Hill slope (n), maximum inhibition (S∞), and minimum inhibition (S0). The reported IC50 values for compounds in this invention are the geometric means of at least 2 independent replicates.

T1 sequence (Q14191 2-1235): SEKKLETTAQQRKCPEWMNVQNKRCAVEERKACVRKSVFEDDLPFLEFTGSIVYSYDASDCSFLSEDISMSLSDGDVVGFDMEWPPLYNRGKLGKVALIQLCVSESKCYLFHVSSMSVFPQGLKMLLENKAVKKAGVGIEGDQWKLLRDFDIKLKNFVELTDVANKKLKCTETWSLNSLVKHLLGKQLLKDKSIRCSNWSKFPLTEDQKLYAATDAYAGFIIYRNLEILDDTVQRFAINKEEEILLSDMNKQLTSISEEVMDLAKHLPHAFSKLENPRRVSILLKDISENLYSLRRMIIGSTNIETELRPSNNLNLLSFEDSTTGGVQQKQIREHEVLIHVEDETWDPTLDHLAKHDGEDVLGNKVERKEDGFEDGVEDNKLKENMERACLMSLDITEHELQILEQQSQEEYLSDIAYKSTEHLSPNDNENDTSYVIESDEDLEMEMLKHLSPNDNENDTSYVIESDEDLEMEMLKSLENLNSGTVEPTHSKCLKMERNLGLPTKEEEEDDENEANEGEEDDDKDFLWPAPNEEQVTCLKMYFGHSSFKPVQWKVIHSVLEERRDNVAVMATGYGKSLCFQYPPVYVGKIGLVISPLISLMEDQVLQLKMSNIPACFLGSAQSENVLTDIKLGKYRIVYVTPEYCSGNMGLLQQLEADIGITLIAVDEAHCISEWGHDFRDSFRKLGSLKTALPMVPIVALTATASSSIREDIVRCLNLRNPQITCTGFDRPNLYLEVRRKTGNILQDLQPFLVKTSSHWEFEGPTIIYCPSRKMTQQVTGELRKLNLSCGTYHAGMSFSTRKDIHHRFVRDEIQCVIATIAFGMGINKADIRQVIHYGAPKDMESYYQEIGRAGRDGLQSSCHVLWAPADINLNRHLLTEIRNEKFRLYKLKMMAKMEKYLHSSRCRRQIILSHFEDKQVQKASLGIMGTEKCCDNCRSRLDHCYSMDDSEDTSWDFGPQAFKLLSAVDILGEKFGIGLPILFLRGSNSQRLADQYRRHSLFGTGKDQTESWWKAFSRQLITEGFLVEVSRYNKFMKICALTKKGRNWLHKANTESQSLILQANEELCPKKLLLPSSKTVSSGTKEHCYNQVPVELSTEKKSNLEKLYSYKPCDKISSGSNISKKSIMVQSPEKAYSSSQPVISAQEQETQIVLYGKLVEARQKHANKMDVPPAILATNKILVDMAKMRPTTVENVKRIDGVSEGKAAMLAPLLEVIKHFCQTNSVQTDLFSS

Row | SMILES | IC50 (WRN [1]) [nM] | IC50 (WRN [2]) [nM]
1 | C=CC(=O)Nc1ccccc1-c1c(CC)nc2n(CC(=O)Nc3ccc(C(F)(F)F)cc3)c(C)cn2c1=O [Example 1, N-(2-(7-Ethyl-2-methyl-5-oxo-1-(2-oxo-2-((4-(trifluoromethyl)phenyl)amino)ethyl)-1,5-dihydroimidazo[1,2-a]pyrimidin-6-yl)phenyl)acrylamide] | < 100 | < 100
2 | C=CC(=O)Nc1ccccc1-c1c(CC)nc2n(CC(=O)Nc3ccc(C(F)(F)F)cc3Cl)c(C)cn2c1=O [Example 2, N-(2-(1-(2-((2-Chloro-4-(trifluoromethyl)phenyl)amino)-2-oxoethyl)-7-ethyl-2-methyl-5-oxo-1,5-dihydroimidazo[1,2-a]pyrimidin-6-yl)phenyl)acrylamide] | < 100 | < 100
3 | C=CC(=O)Nc1cc(S(C)(=O)=O)ccc1-c1c(CC)nc2n(CC(=O)Nc3ccc(C(F)(F)F)cc3)c(C)cn2c1=O [Example 3, N-(2-(7-Ethyl-2-methyl-5-oxo-1-(2-oxo-2-((4-(trifluoromethyl)phenyl)amino)ethyl)-1,5-dihydroimidazo[1,2-a]pyrimidin-6-yl)-5-(methylsulfonyl)phenyl)acrylamide] | < 100 | < 100
4 | C=CC(=O)Nc1ncccc1-c1c(CC)nc2n(CC(=O)Nc3ccc(C(F)(F)F)cc3)c(C)cn2c1=O [Example 4, N-(3-(7-Ethyl-2-methyl-5-oxo-1-(2-oxo-2-((4-(trifluoromethyl)phenyl)amino)ethyl)-1,5-dihydroimidazo[1,2-a]pyrimidin-6-yl)pyridin-2-yl)acrylamide] | < 100 | < 100
5 | C=CC(=O)Nc1cc(-c2cnn(C)c2)ccc1-c1c(CC)nc2n(CC(=O)Nc3ccc(C(F)(F)F)cc3)c(C)cn2c1=O [Example 5, N-(2-(7-Ethyl-2-methyl-5-oxo-1-(2-oxo-2-((4-(trifluoromethyl)phenyl)amino)ethyl)-1,5-dihydroimidazo[1,2-a]pyrimidin-6-yl)-5-(1-methyl-1H-pyrazol-4-yl)phenyl)acrylamide] | < 100 | < 100
6 | C=CS(=O)(=O)Nc1ccccc1-c1c(CC)nc2n(CC(=O)Nc3ccc(C(F)(F)F)cc3)c(C)cn2c1=O [Example 6, 2-(7-Ethyl-2-methyl-5-oxo-6-(2-(vinylsulfonamido)phenyl)imidazo[1,2-a]pyrimidin-1(5H)-yl)-N-(4-(trifluoromethyl)phenyl)acetamide] | < 100 | < 100
7 | CCc1nc2n(CC(=O)Nc3ccc(C(F)(F)F)cc3)c(C)cn2c(=O)c1-c1ccccc1NC(=O)CCl [Example 7, 2-Chloro-N-(2-(7-ethyl-2-methyl-5-oxo-1-(2-oxo-2-((4-(trifluoromethyl)phenyl)amino)ethyl)-1,5-dihydroimidazo[1,2-a]pyrimidin-6-yl)phenyl)acetamide] | < 100 | < 100
8 | C=CC(=O)Nc1cc(C(=O)NC2CC2)ccc1-c1c(CC)nc2n(CC(=O)Nc3ccc(C(F)(F)F)cc3)c(C)cn2c1=O [Example 8, 3-Acrylamido-N-cyclopropyl-4-(7-ethyl-2-methyl-5-oxo-1-(2-oxo-2-((4-(trifluoromethyl)phenyl)amino)ethyl)-1,5-dihydroimidazo[1,2-a]pyrimidin-6-yl)benzamide] | < 100 | < 100
9 | C=CC(=O)Nc1cc(C(=O)NC2CC2)ccc1-c1c(CC)nc2n(CC(=O)Nc3ccc(F)cc3Cl)c(C)cn2c1=O [Example 9, 3-Acrylamido-4-(1-(2-((2-chloro-4-fluorophenyl)amino)-2-oxoethyl)-7-ethyl-2-methyl-5-oxo-1,5-dihydroimidazo[1,2-a]pyrimidin-6-yl)-N-cyclopropylbenzamide] | < 100 | < 100
10 | C=CC(=O)Nc1cc(C(=O)NC2(C)CC2)ccc1-c1c(CC)nc2n(CC(=O)Nc3ccc(C(F)(F)F)cc3)c(C)cn2c1=O [Example 10, 3-Acrylamido-4-(7-ethyl-2-methyl-5-oxo-1-(2-oxo-2-((4-(trifluoromethyl)phenyl)amino)ethyl)-1,5-dihydroimidazo[1,2-a]pyrimidin-6-yl)-N-(1-methylcyclopropyl)benzamide] | < 100 | < 100
11 | C=CC(=O)Nc1cc(C(=O)NCC(F)F)ccc1-c1c(CC)nc2n(CC(=O)Nc3ccc(C(F)(F)F)cc3)c(C)cn2c1=O [Example 11, 3-Acrylamido-N-(2,2-difluoroethyl)-4-(7-ethyl-2-methyl-5-oxo-1-(2-oxo-2-((4-(trifluoromethyl)phenyl)amino)ethyl)-1,5-dihydroimidazo[1,2-a]pyrimidin-6-yl)benzamide] | < 100 | < 100
12 | C#CCNC(=O)c1ccc(-c2c(CC)nc3n(CC(=O)Nc4ccc(C(F)(F)F)cc4)c(C)cn3c2=O)c(NC(=O)C=C)c1 [Example 12, 3-Acrylamido-4-(7-ethyl-2-methyl-5-oxo-1-(2-oxo-2-((4-(trifluoromethyl)phenyl)amino)ethyl)-1,5-dihydroimidazo[1,2-a]pyrimidin-6-yl)-N-(prop-2-yn-1-yl)benzamide] | < 100 | < 100
13 | C=CC(=O)Nc1cc(C(=O)NC2CCOCC2)ccc1-c1c(CC)nc2n(CC(=O)Nc3ccc(C(F)(F)F)cc3)c(C)cn2c1=O [Example 13, 3-Acrylamido-4-(7-ethyl-2-methyl-5-oxo-1-(2-oxo-2-((4-(trifluoromethyl)phenyl)amino)ethyl)-1,5-dihydroimidazo[1,2-a]pyrimidin-6-yl)-N-(tetrahydro-2H-pyran-4-yl)benzamide] | < 100 | < 100
14 | C=CC(=O)Nc1ccccc1-c1c(CC)nc2n(CC(=O)Nc3ccc(C(F)(F)F)cc3)c(C)c(C3CC3)n2c1=O [Example 14, N-(2-(3-Cyclopropyl-7-ethyl-2-methyl-5-oxo-1-(2-oxo-2-((4-(trifluoromethyl)phenyl)amino)ethyl)-1,5-dihydroimidazo[1,2-a]pyrimidin-6-yl)phenyl)acrylamide] | < 100 | < 100
15 | C=CC(=O)Nc1ccccc1-c1c(CC)nc2n(CC(=O)Nc3ccc(C(F)(F)F)cc3)c(C)c(-c3ccccc3)n2c1=O [Example 15, N-(2-(7-Ethyl-2-methyl-5-oxo-1-(2-oxo-2-((4-(trifluoromethyl)phenyl)amino)ethyl)-3-phenyl-1,5-dihydroimidazo[1,2-a]pyrimidin-6-yl)phenyl)acrylamide] | < 100 | < 100
